# Columns and labels:
# Prothrombin = Prothrombin (Homo sapiens, UniProt P00734); assay: Inhibitory constant against human coagulation factor II (thrombin) for selectivity within coagulation cascade
# Coagulation factor X = Coagulation factor X (Homo sapiens, UniProt P00742); assay: Inhibitory constant against human coagulation factor Xa (fXa)
# Serine protease 1 = target: T1, Serine protease 1 (Bos taurus, UniProt P00760); assay: Inhibitory constant against bovine trypsin for general specificity against serine proteases
# T1 sequence (P00760 whole entry): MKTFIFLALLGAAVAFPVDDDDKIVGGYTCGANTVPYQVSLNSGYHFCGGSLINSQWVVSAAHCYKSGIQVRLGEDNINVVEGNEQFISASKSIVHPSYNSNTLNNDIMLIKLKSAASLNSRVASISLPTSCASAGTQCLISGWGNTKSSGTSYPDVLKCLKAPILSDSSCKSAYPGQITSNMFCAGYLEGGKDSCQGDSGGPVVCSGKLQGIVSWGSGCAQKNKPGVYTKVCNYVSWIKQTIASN
# Sequence of Coagulation factor X (P00742 41-179 limits assumed): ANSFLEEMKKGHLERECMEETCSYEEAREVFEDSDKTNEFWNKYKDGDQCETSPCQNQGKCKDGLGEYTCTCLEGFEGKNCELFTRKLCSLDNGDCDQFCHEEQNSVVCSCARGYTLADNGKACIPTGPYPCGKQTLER
# Sequence of Coagulation factor X (P00742 235-488 limits assumed): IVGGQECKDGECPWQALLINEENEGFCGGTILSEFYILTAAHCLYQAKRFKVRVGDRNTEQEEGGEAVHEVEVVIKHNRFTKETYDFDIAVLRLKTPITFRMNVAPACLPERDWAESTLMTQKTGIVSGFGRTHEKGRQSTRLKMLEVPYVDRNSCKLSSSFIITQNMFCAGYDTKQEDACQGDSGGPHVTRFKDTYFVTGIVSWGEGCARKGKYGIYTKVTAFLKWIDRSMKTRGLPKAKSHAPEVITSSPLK
Ki (Prothrombin) [µM],Ki (Coagulation factor X) [µM],Ki (Serine protease 1) [µM],SMILES
0.95,0.32,5,Cc1c(Oc2nc(Oc3cccc(C(=N)N)c3)c(F)c(C)c2F)cccc1N(C)C
,1.4,,COc1ccc(C(=N)N)cc1Oc1nc(Oc2cccc(N(C)C)c2)c(F)c(C)c1F
> 5,0.18,> 5,COc1cc(C(=N)N)cc(Oc2nc(Oc3cccc(C(=O)N(C)C)c3)c(F)c(C)c2F)c1OC
> 5,2.2,3.3,Cc1c(F)c(Oc2cccc(C(=N)N)c2)nc(Oc2cccc(C(O)C(=O)N(C)C)c2)c1F (stereo not drawn)
0.88,0.0084,0.47,Cc1cn(C)c(-c2cccc(Oc3cc(C(=O)O)cc(Oc4cc(C(=N)N)ccc4O)n3)c2)n1
> 5,> 5,> 5,Cc1c(F)c(Oc2cccc(C(=O)N(C)C)c2)nc(Oc2cccc(C(=N)N)c2O)c1F
> 5,1.6,,Cc1c(F)c(Oc2cccc(C(=N)N)c2)nc(Oc2cccc(C(F)(F)F)c2)c1F
> 5,> 5,> 5,COc1cc(Oc2nc(Oc3cccc(C(=O)N(C)C)c3)c(F)c(C)c2F)c(O)c(C(=N)N)c1
> 5,> 5,3.4,Cc1c(F)c(Oc2cccc(C(=N)N)c2)nc(Oc2cc(C(=O)N(C)C)cc(O)c2O)c1F
4.9,3.8,1.9,Cc1c(F)c(Oc2cccc(NS(C)(=O)=O)c2)nc(Oc2cccc(C(=N)N)c2)c1F
0.19,0.003,1,Cc1c(F)c(Oc2cccc(N(C)C)c2)nc(Oc2cc(C(=N)N)ccc2O)c1F
> 5,> 5,> 5,CCOC(=O)c1ccc(N(C)C)cc1Oc1nc(Oc2cccc(C(=N)N)c2)c(F)c(C)c1F
,> 5,,Cc1c(F)c(Oc2cccc(C(=O)N(C)C)c2)nc(Oc2cc(C(=N)N)ccc2NS(=O)(=O)C(F)(F)F)c1F
3.8,1.8,> 5,Cc1c(F)c(Oc2cccc(Nc3ccccc3)c2)nc(Oc2cccc(C(=N)N)c2)c1F
> 5,2.5,> 5,Cc1c(F)c(Oc2cccc(C(=N)N)c2)nc(Oc2cccc([N+](=O)[O-])c2)c1F
,> 5,,COc1ccc(C(=N)N)c(OC)c1Oc1nc(Oc2cccc(N(C)C)c2)c(F)c(C)c1F
,0.37,,Cc1c(F)c(Oc2cccc(C(=N)N)c2)nc(Oc2cccc(C(O)C(N)=O)c2)c1F (stereo not drawn)
,4.5,,Cc1c(F)c(Oc2cccc(C(=N)N)c2)nc(Oc2cccc(C(=O)N(C)C)c2O)c1F
,0.72,,COc1ccc(C(=N)N)cc1Oc1nc(Oc2cccc(C(=O)N(C)C)c2)c(F)c(C)c1F
> 5,1.3,4.9,Cc1c(F)c(Oc2cccc(CCC(=O)N(C)C)c2)nc(Oc2cccc(C(=N)N)c2)c1F
,2.4,,Cc1c(F)c(Oc2cccc(C(=N)N)c2)nc(Oc2cccc(C(=O)N(C)Cc3ccccc3)c2)c1F
> 5,4,> 5,Cc1c(F)c(Oc2cccc(NC(N)=O)c2)nc(Oc2cccc(C(=N)N)c2)c1F
,0.7,> 5,Cc1c(F)c(Oc2cccc(CCC(N)=O)c2)nc(Oc2cccc(C(=N)N)c2)c1F
,> 5,,Cc1ccc(C(=O)N(C)C)cc1Oc1nc(Oc2cccc(C(=N)N)c2)c(F)c(C)c1F

Ki (Prothrombin) [µM],Ki (Coagulation factor X) [µM],Ki (Serine protease 1) [µM],SMILES
,0.69,,CCN(CC)C(=O)c1cccc(Oc2nc(Oc3cccc(C(=N)N)c3)c(F)c(C)c2F)c1
> 5,1.7,,Cc1c(F)c(Oc2cccc(Cl)c2)nc(Oc2cccc(C(=N)N)c2)c1F
,2.7,,COc1cc(Oc2nc(Oc3cccc(C(=O)N(C)C)c3)c(F)c(C)c2F)cc(C(=N)N)c1
> 5,5,> 5,Cc1c(F)c(Oc2cccc(C(=N)N)c2)nc(Oc2cccc(C(=O)O)c2)c1F
0.65,0.013,0.16,Cc1cn(-c2cccc(Oc3cc(C(=O)O)cc(Oc4cc(C(=N)N)ccc4O)n3)c2)cn1
> 5,0.72,2.4,Cc1c(F)c(Oc2cccc(C(=N)N)c2)nc(Oc2cccc([S+]([O-])N(C)C)c2)c1F (stereo not drawn)
,1.2,,CNC(=O)c1cccc(Oc2nc(Oc3cccc(C(=N)N)c3)c(F)c(C)c2F)c1
,0.0018,,Cc1c(F)c(Oc2cccc(C(=O)N(C)C)c2)nc(Oc2cc(C(=N)N)ccc2O)c1F
3.4,0.078,0.35,N=C(N)c1ccc(O)c(Oc2cc(C(=O)O)cc(Oc3cccc(NCCN)c3)n2)c1
,2,,Cc1c(F)c(Oc2cccc(C(=N)N)c2)nc(Oc2ccc(O)c(C(=O)N(C)C)c2)c1F
> 5,0.81,1.4,CC1(C)CNC(c2cccc(Oc3cc(C(=O)O)cc(Oc4cc(C(=N)N)ccc4O)n3)c2)=N1
> 5,0.53,2.7,CCNc1cccc(Oc2nc(Oc3cccc(C(=N)N)c3)c(F)c(C)c2F)c1
> 5,5.5,> 5,Cc1c(F)c(Oc2cccc(N(C)C)c2)nc(Oc2cc(C(=N)N)ccc2NS(C)(=O)=O)c1F
3,1.4,0.45,COc1ccc(Oc2nc(Oc3cccc(C(=N)N)c3)c(F)c(C)c2F)cc1C(=O)N(C)C
> 5,3.3,> 5,Cc1c(F)c(Oc2cccc(N)c2)nc(Oc2cccc(C(=N)N)c2)c1F
> 5,> 5,> 5,Cc1c(F)c(Oc2cccc(CC(=O)O)c2)nc(Oc2cccc(C(=N)N)c2)c1F
> 5,0.16,> 5,COc1c(O)cc(C(=N)N)cc1Oc1nc(Oc2cccc(C(=O)N(C)C)c2)c(F)c(C)c1F
0.68,0.008,0.58,Cc1nccn1-c1cccc(Oc2cc(C(=O)O)cc(Oc3cc(C(=N)N)ccc3O)n2)c1
> 5,0.65,2,Cc1c(F)c(Oc2cccc(C(=N)N)c2)nc(Oc2cccc(N3CCOCC3)c2)c1F
> 5,> 5,2.1,COc1ccc(C(=O)N(C)C)cc1Oc1nc(Oc2cccc(C(=N)N)c2)c(F)c(C)c1F
> 5,0.14,0.75,COc1cc(Oc2nc(Oc3cccc(C(=N)N)c3)c(F)c(C)c2F)cc(C(=O)N(C)C)c1
> 5,> 5,> 5,Cc1ccc(N(C)C)cc1Oc1nc(Oc2cccc(C(=N)N)c2)c(F)c(C)c1F
0.12,0.012,0.75,CN(C)c1cccc(Oc2cc(C(=O)O)cc(Oc3cc(C(=N)N)ccc3O)n2)c1
> 5,0.28,> 5,Cc1c(F)c(Oc2cccc(CC(N)=O)c2)nc(Oc2cccc(C(=N)N)c2)c1F

Ki (Prothrombin) [µM],Ki (Coagulation factor X) [µM],Ki (Serine protease 1) [µM],SMILES
> 5,1.4,,CC(=O)c1cccc(Oc2nc(Oc3cccc(C(=N)N)c3)c(F)c(C)c2F)c1
> 5,5.2,> 5,CCOC(=O)c1cccc(Oc2nc(Oc3cccc(C(=N)N)c3)c(F)c(C)c2F)c1
> 5,0.22,2.8,Cc1c(F)c(Oc2cccc(C(=N)N)c2)nc(Oc2cccc(C(=O)N3CCCC3)c2)c1F
> 5,0.125,4.8,Cc1c(F)c(Oc2cccc(C(=N)N)c2)nc(Oc2cccc(-n3ccnc3)c2)c1F
,> 5,,COc1cc(C(=O)N(C)C)cc(Oc2nc(Oc3cccc(C(=N)N)c3)c(F)c(C)c2F)c1OC
,,0.65,Cn1ccnc1-c1cccc(Oc2cc(C(=O)O)cc(Oc3cc(C(=N)N)ccc3O)n2)c1
0.3,0.064,0.4,Cc1c(F)c(Oc2cccc(N(C)C)c2)nc(Oc2cc(C(=N)N)ccc2N)c1F
> 5,0.82,3,Cc1c(F)c(Oc2cccc(C(=N)N)c2)nc(Oc2cccc(C(=O)N3CCCCC3)c2)c1F
,5.8,,CC(=O)Nc1cccc(Oc2nc(Oc3cccc(C(=N)N)c3)c(F)c(C)c2F)c1
5.3,0.5,1,Cc1c(F)c(Oc2cccc(C(=N)N)c2)nc(Oc2ccc(Cl)c(N(C)C)c2)c1F
,> 5,,Cc1c(F)c(Oc2cccc(C(=N)N)c2)nc(Oc2cccc(C(=O)N3CCN(C)CC3)c2)c1F
5.3,0.62,2.9,Cc1c(F)c(Oc2cccc(OC(C)C)c2)nc(Oc2cccc(C(=N)N)c2)c1F
,1.3,,Cc1c(F)c(Oc2cccc(CO)c2)nc(Oc2cccc(C(=N)N)c2)c1F
> 5,1.4,2.9,Cc1c(F)c(Oc2cccc(CN)c2)nc(Oc2cccc(C(=N)N)c2)c1F
0.74,> 5,1.9,Cc1c(F)c(Oc2cccc(C(=N)N)c2)nc(Oc2cc(O)cc(C(=O)N(C)C)c2)c1F
0.49,0.0031,0.15,CN(C)C(=O)c1cccc(Oc2cc(C(=O)O)cc(Oc3cc(C(=N)N)ccc3O)n2)c1
> 5,> 5,3.7,Cc1c(F)c(Oc2cccc(C(=N)N)c2)nc(Oc2cc(C(=O)N(C)C)ccc2O)c1F
,3.2,,Cc1c(F)c(Oc2cccc(F)c2)nc(Oc2cccc(C(=N)N)c2)c1F
1.8,1.35,,COc1cccc(Oc2nc(Oc3cccc(C(=N)N)c3)c(F)c(C)c2F)c1
,2.4,,COc1c(Oc2nc(Oc3cccc(C(=N)N)c3)c(F)c(C)c2F)cccc1C(=O)N(C)C
> 5,> 5,,Cc1c(F)c(Oc2cccc(C(=N)N)c2)nc(Oc2cccc(C(=O)Nc3ccccc3)c2)c1F
,1.2,,Cc1ccc(C(=N)N)cc1Oc1nc(Oc2cccc(N(C)C)c2)c(F)c(C)c1F
,5,,Cc1c(F)c(Oc2cccc(O)c2)nc(Oc2cccc(C(=N)N)c2)c1F

# Source: ChEMBL document CHEMBL1135740, “Design, synthesis, and activity of a novel series of factor Xa inhibitors: optimization of arylamidine groups” (J Med Chem, 2002)
